In US11716992B2, “5A5B6C tricyclic spirolactone derivative, preparation method therefor and use thereof” (NANKAI UNIVERSITY, priority 2017, dated 2023):
Where “and” joins values, the source holds several entries; their conditions need not be identical. Equal values may be shown once. Read-outs that look alike come from different tables or passages of the source.

Tests used:
Cercospora arachidicola = experiment: Fungicidal activity, fungicide growth rate method, CA; type: cell-based; conditions: Mycosphaerella arachidis, 50 μg/mL; read-out: fungicidal activity (growth inhibition rate), CA
wheat Gibberella zeae = experiment: microbe, parasite or virus in culture; type: cell-based; conditions: Fusarium graminearum, read-out: fungicidal activity (growth inhibition rate), GZ, 50 μg/mL
Pellicularia sasakii = experiment: Fungicidal activity, fungicide growth rate method, PS; type: cell-based; conditions: 50 μg/mL; read-out: fungicidal activity (growth inhibition rate), PS
Botrytis cinerea = experiment: Fungicidal activity, fungicide growth rate method, BC; type: cell-based; conditions: Botrytis cinerea, 50 μg/mL; read-out: fungicidal activity (growth inhibition rate), BC
[1] = tested on: Helicoverpa armigera (Hübner); experiment: Insecticidal activity against Helicoverpa armigera (Hübner); type: in vivo; conditions: Helicoverpa armigera; 100 μg/mL; read-out: insecticidal activity, Helicoverpa armigera (Hübner)
Caenorhabditis elegans = experiment: Insecticidal activity against Caenorhabditis elegans; type: in vivo; conditions: Caenorhabditis elegans, 100 μg/mL; read-out: insecticidal activity, Caenorhabditis elegans
Ostrinia furnacalis = experiment: Insecticidal activity against Ostrinia furnacalis; type: in vivo; conditions: Ostrinia furnacalis; 100 μg/mL; read-out: insecticidal activity, Ostrinia furnacalis
Rhizoctonia cerealis = experiment: Fungicidal activity, fungicide growth rate method, RC; type: cell-based; conditions: Ceratobasidium cereale, 50 μg/mL; read-out: fungicidal activity (growth inhibition rate), RC
[2] = tested on: Phytophthora infestans (Mont.) de Bary; experiment: microbe, parasite or virus in culture; type: cell-based; conditions: Phytophthora infestans, read-out: fungicidal activity (growth inhibition rate), PI, 50 μg/mL
[3] = tested on: Apis mellifera ligustica Spin; conditions: for Death number after 24 h / Death number after 48 h: per replicate of 10 bees
[4] = tested on: Mythimna separate (Walker); experiment: Insecticidal activity against Mythimna separate (Walker); type: in vivo; conditions: Mythimna, 100 μg/mL; read-out: insecticidal activity, Mythimna separate (Walker)
Physalospora piricola = experiment: Fungicidal activity, fungicide growth rate method, PP; type: cell-based; conditions: 50 μg/mL; read-out: fungicidal activity (growth inhibition rate), PP
Alternaria solani = experiment: Fungicidal activity, fungicide growth rate method, AS; type: cell-based; conditions: Alternaria solani, 50 μg/mL; read-out: fungicidal activity (growth inhibition rate), AS
Sclerotinia sclerotiorum = experiment: Fungicidal activity, fungicide growth rate method, SS; type: cell-based; conditions: Sclerotinia sclerotiorum, 50 μg/mL

| Structure (SMILES) | inhibition at 50 µg/mL (Cercospora arachidicola) [%] | inhibition at 50 µg/mL (wheat Gibberella zeae) [%] | inhibition at 50 µg/mL (Pellicularia sasakii) [%] | inhibition at 50 µg/mL (Botrytis cinerea) [%] | pest or weed control at 100 µg/mL [1] [%] | pest or weed control at 100 µg/mL (Caenorhabditis elegans) [%] | pest or weed control at 100 µg/mL (Ostrinia furnacalis) [%] | inhibition at 50 µg/mL (Rhizoctonia cerealis) [%] | inhibition at 50 µg/mL [2] [%] | pest or weed control at 100 µg/mL [4] [%] | inhibition at 50 µg/mL (Physalospora piricola) [%] | inhibition at 50 µg/mL (Alternaria solani) [%] | also measured |
| --- | --- | --- | --- | --- | --- | --- | --- | --- | --- | --- | --- | --- | --- |
| CCOC(=O)C(C(=O)OCC)C1C[C@]2(O)C(C(=O)OCC)C(=O)O[C@@]23CC=CC[C@H]13 (some centres unmarked) [Zyj06-113-3] | > 50 | 43 | 11 | > 50 | 0 | 5 | 0 | 32 | 11 | 0 | – | – | Death rate after 48 h (%) ([3]; dosage 9.87 μg a.i./bee): 0%; Death number after 24 h ([3]; dosage 9.87 μg a.i./bee): 0; Death number after 48 h ([3]; dosage 9.87 μg a.i./bee): 0; Death rate after 48 h (%) ([3]; dosage 15.2 μg a.i./bee): 10.0%; Death number after 24 h ([3]; dosage 15.2 μg a.i./bee): 0; Death number after 48 h ([3]; dosage 15.2 μg a.i./bee): 1 |
| C=CC[C@@H]1C[C@]2(O)CC(=O)O[C@@]23C[C@@H](Cl)[C@H](O)C[C@H]13 [Zyj07-14] | 31 | 43 | 15 | > 50 | – | 20 | – | 51 | 2 | – | 31 | 15 | – |
| C=CCC1CC2(O)CC(CC=C)C3CC=CCC32O1 (racemic) [Zyj-7-98] | – | – | – | – | – | – | – | – | – | – | – | – | Death rate after 48 h (%) ([3]; dosage 12.0 μg a.i./bee): 0%; Death number after 24 h ([3]; dosage 12.0 μg a.i./bee): 0; Death number after 48 h ([3]; dosage 12.0 μg a.i./bee): 0 |
| C=CC[C@@H]1CC(=O)[C@@]2(O)CC=CC[C@H]12 [Zyj06-177] | 46 | 0 | 19 | 48 | 0 | – | 0 | 61 | 11 | 0 | 11 | 12 | Death rate after 48 h (%) ([3]; dosage 8.17 μg a.i./bee): 0%; Death number after 24 h ([3]; dosage 8.17 μg a.i./bee): 0; Death number after 48 h ([3]; dosage 8.17 μg a.i./bee): 0; Death rate after 48 h (%) ([3]; dosage 9.46 μg a.i./bee): 0%; Death number after 24 h ([3]; dosage 9.46 μg a.i./bee): 0; Death number after 48 h ([3]; dosage 9.46 μg a.i./bee): 0 |
| C=CC[C@@H]1C[C@@]2(OC(C)=O)C[C@@H](CC=C)[C@H]3CC=CC[C@@]32O1 [Zyj07-38] | > 50 | – | – | – | 10 | > 30 | 5 | – | – | 15 | – | – | – |
| CCOC(=O)C1C(=O)O[C@]23CC=CC[C@@H]2[C@H](OOC(C)(C)C)C[C@]13O (some centres unmarked) [Zyj06-127] | 23 | 36 | 4 | 45 | 0 | 7 | 0 | 40 | 2 | 0 | 5 | 7 | Death rate after 48 h (%) ([3]; dosage 5.40 μg a.i./bee): 0%; Death number after 24 h ([3]; dosage 5.40 μg a.i./bee): 0; Death number after 48 h ([3]; dosage 5.40 μg a.i./bee): 0; Death rate after 48 h (%) ([3]; dosage 7.70 μg a.i./bee): 0%; Death number after 24 h ([3]; dosage 7.70 μg a.i./bee): 0; Death number after 48 h ([3]; dosage 7.70 μg a.i./bee): 0 |
| C=CC[C@@H]1CC2=CC(=O)O[C@@]23CC=CC[C@H]13 [Zyj07-92] | – | – | 40 | 30 | 0 | – | 0 | > 70 | 15 | 20 | – | > 60 | inhibition at 50 µg/mL (Sclerotinia sclerotiorum): 38%; Death rate after 48 h (%) ([3]; dosage 7.44 μg a.i./bee): 5.0%; Death number after 24 h ([3]; dosage 7.44 μg a.i./bee): 0; Death number after 48 h ([3]; dosage 7.44 μg a.i./bee): 0 and 1; Death rate after 48 h (%) ([3]; dosage 14.3 μg a.i./bee): 5.0%; Death number after 24 h ([3]; dosage 14.3 μg a.i./bee): 0; Death number after 48 h ([3]; dosage 14.3 μg a.i./bee): 0 and 1 |
